From patent US20180064714A1 (Mylan Laboratories Ltd, priority 2015, published 2018)

Experiments:
[1] = Physical and chemical stability on storage, analysed by PXRD for polymorph integrity; assay type: physicochemical
Description: The Cu-anode X-ray tube was operated at 40 kV and 30 mA. The experiments were conducted over the 2θ range of 2.0°-50.0°, 0.030° step size and 0.4 seconds step time.
The Cu-anode X-ray tube was operated at 40 kV and 30 mA. The experiments were conducted over the […] of 2.0°-50.0°, 0.030° step size and 0.4 seconds step time.
As used herein, a compound or pharmaceutical composition is considered “stable” where the HPLC purity of the compound or premix changes by less than about 1% when stored at 5° C.±3° C. and/or at 25° C./60% relative humidity (RH). In certain embodiments, the “stable” compound or premix is stored at 5° C.±3° C. In other embodiments, the “stable” compound or premix is stored at 25° C./60% relative humidity (RH).

[2] = cited from earlier work

Row | Compound | Initial PXRD analysis ([1]; at 5° C. ± 3° C.) | Initial PXRD analysis ([1]; at 25° C./60% RH) | Initial PXRD analysis ([1]; at 40° C./75% RH) | Solubility in water [2]
1 | CC[C@H](Nc1ncnc2nc[nH]c12)c1nc2cccc(F)c2c(=O)n1-c1ccccc1 [Amorphous Idelalisib, 5-fluoro-3-phenyl-2-[(1S)-1-(7H-purin-6-ylamino)propyl]-4(3H)-quinazolinone] | Amorphous | Amorphous | Amorphous | –
2 | CC[C@H](Nc1ncnc2[nH]cnc12)c1nc2cccc(F)c2c(=O)n1-c1ccccc1 [Idelalisib, 5-fluoro-3-phenyl-2-[(1S)-1-(7H-purin-6-ylamino)propyl]-4(3H)-quinazolinone] | – | – | – | poorly soluble
